From publication PMC5805504 (Oncotarget, 2017)

Columns and labels:
[1] = design: method as in PMID 21859884; settings: rats; cited from earlier work
[2] = tested on: U87MG xenograft tumors; test: U87MG glioblastoma xenograft tumor model; settings: galunisertib 25 mg/kg BID oral; lomustine (CCNU) 30 mg/kg single intraperitoneal dose; alone or combined
Method: Five million U87MG glioblastoma cells, obtained from ATCC (Manassas, VA), were injected subcutaneously in the flank of 8- to 9-week old, female, athymic nude mice (Harlan, Indianapolis, IN) in a 1:1 mixture of 1x PBS and matrigel (Becton Dickinson, Bedford, MA). Mice were monitored daily for palpable tumors. […] The tumor volumes were recorded at regular intervals following treatment.

Compound | cardiac valve lesions [1] | anti-tumor effect (tumor volume) [2]
c1ccc(-c2nc3c(c(-n4ccc5cnccc54)n2)CCC3)nc1 [AZ12601011] | induced cardiac valve lesions | –
O=NN(CCCl)C(=O)NC1CCCCC1 [lomustine, reference compound] | – | antitumor activity
